pIC50: −log10 of the molar value.
What was measured:
[1] = biological target: human cytosolic Serine Hydroxymethyl transferase 1 (SHMT1) (Homo sapiens (Human), UniProt P34896); assay: SHMT1 activity inhibition assay (serine production from glycine and CH2-THF, mass spectroscopy); assay type: biochemical; conditions: 60 minutes at room temperature
Excerpt: (§1) Full length human cytosolic Serine Hydroxymethyl transferase 1 (SHMT1, residues 1-483 in Uniport ID P34896) was expressed as an N-terminal His6 tagged protein and purified in E. coli using nickel capture followed by size-exclusion chromatography. Human mitochondrial SHMT2 (residues 30-504 in Uniprot ID P34897) with mitochondrial leader sequence deleted was expressed as an N-terminal His6 tagged protein and purified in E. coli using nickel capture followed by size-exclusion chromatography.
(§2) Serine hydroxymethyltransferases catalyze the reversible hydroxymethylation of glycine to serine, with methylene tetrahydrofolate (CH2-THF) providing the additional carbon. SHMT1 and SHMT2 activity was determined by measuring serine production from glycine and CH2-THF using mass spectroscopy. Briefly, 15 ul of 0.5 mM glycine and 0.2 mM CH2-THF in 20 mM TEA, pH8.0, 0.2 mM NADPH were added to 384 well plate containing 0, 0.05 mM, 0.005 mM or 0.0005 mM of inhibitor. 15 ul of SHMT1 or 2 were added to initiate the reaction. The plate was incubated for 60 minutes at room temperature and the reaction was quenched by the addition of 30 ul of 10% trichloroacetic acid. Serine produced was analyzed using Rapidfire 360 and API4000^+ in the positive ion mode.

[2] = biological target: Human mitochondrial SHMT2 (Homo sapiens (Human), UniProt P34897); assay: SHMT2 activity inhibition assay (serine production from glycine and CH2-THF, mass spectroscopy); assay type: biochemical; conditions: 60 minutes at room temperature
Chain of Human mitochondrial SHMT2 (P34897 30-504): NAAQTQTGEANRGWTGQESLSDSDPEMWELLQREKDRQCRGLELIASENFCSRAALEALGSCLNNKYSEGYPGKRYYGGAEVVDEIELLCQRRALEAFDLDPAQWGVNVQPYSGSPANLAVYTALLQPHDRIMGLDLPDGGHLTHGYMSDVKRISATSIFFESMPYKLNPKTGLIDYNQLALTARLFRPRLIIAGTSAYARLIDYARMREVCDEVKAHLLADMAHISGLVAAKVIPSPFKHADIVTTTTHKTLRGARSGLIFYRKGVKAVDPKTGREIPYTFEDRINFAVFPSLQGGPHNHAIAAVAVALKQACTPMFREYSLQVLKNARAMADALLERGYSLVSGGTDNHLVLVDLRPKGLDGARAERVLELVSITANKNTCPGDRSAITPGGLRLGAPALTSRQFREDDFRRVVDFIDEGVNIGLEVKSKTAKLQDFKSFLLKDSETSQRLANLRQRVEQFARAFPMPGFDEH
Excerpt: as §1
as §2, with “15 ul of SHMT1 or 2 were added to initiate the reaction.” left out

Chain of human cytosolic Serine Hydroxymethyl transferase 1 (SHMT1) (P34896 whole entry, the tested form may be a part): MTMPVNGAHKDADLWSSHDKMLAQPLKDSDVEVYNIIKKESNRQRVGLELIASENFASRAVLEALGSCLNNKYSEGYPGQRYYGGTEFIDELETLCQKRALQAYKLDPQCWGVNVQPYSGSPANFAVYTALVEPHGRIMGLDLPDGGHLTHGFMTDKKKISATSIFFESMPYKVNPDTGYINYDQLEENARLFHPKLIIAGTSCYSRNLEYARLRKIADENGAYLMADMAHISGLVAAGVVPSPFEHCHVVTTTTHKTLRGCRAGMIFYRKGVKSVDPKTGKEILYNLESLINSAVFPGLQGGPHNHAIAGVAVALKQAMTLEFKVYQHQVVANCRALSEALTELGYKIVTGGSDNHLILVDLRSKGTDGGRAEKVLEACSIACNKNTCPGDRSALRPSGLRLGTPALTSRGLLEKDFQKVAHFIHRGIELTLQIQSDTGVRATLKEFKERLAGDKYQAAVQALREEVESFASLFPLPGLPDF

Compound | pIC50 [1] | pIC50 [2]
O=C(Cc1csc(-c2ccc(Cl)cc2Cl)n1)N[C@@H](Cc1ccccc1)C(=O)O [Compound I-42] | 4.00 to 5.00 | 3.30 to 4.00
CC(C)(NC(=O)Cc1ccnc(-c2ccc(Cl)cc2-c2ccccc2)n1)C(=O)O [Compound I-29] | 4.00 to 5.00 | 5.00 to 6.00
C[C@H](NC(=O)Cc1csc(-c2cccc(Br)c2)n1)C(=O)O [Compound I-39] | 4.00 to 5.00 | 4.00 to 5.00
CC(C(=O)NCC(=O)O)c1csc(-c2ccc(Cl)cc2Cl)n1 (centres unmarked) [Compound I-38] | 4.00 to 5.00 | 4.00 to 5.00
Cc1cccc(-c2cc(Cl)ccc2-c2nc(CC(=O)NC(C)(C)C(=O)O)cs2)c1 [Compound I-4] | > 6.00 | > 6.00
CC[C@@H](C)[C@H](NC(=O)Cc1csc(-c2cccc(Cl)c2)n1)C(=O)O [Compound I-32] | 4.00 to 5.00 | 4.00 to 5.00
O=C(O)CNC(=O)Cc1csc(-c2ccc(OC(F)(F)F)cc2)n1 [Compound I-50] | 3.30 to 4.00 | 3.30 to 4.00
O=C(Cc1csc(-c2ccccc2Cl)n1)N[C@@H](Cc1ccccc1)C(=O)O [Compound I-69] | 3.30 to 4.00 | 3.30 to 4.00
O=C(Cc1csc(-c2cccc(Cl)c2)n1)N[C@@H](Cc1c[nH]c2ccccc12)C(=O)O [Compound I-49] | 3.30 to 4.00 | 3.30 to 4.00
C[C@H](NC(=O)Cc1csc(-c2ccccc2F)n1)C(=O)O [Compound I-71] | 3.30 to 4.00 | 3.30 to 4.00
CC(C)(NC(=O)Cc1cccc(-c2ccc(Cl)cc2-c2ccc(F)cc2)c1)C(=O)O [Compound I-15, 2-[[2-[3-[4-Chloro-2-(4-fluorophenyl)phenyl]phenyl]acetyl]amino]-2-methyl-propanoic Acid] | 5.00 to 6.00 | > 6.00
CC(C)(NC(=O)Cc1csc(-c2ccc(Cl)cc2C2CCOCC2)n1)C(=O)O [Compound I-16, 2-[[2-[2-(4-Chloro-2-tetrahydropyran-4-yl-phenyl)thiazol-4-yl]acetyl]amino]-2-methyl-propanoic Acid] | 5.00 to 6.00 | > 6.00
CC(C)(NC(=O)Cc1cccc(-c2ccc(Cl)cc2)c1)C(=O)O [Compound I-30, 2-[2-[3-(4-chlorophenyl)phenyl]acetamido]-2-methylpropanoic Acid] | 4.00 to 5.00 | 5.00 to 6.00
CC(C)(C(=O)NCC(=O)O)c1csc(-c2ccc(Cl)cc2Cl)n1 [Compound I-64, 2-[2-[2-(2,4-dichlorophenyl)-1,3-thiazol-4-yl]-2-methylpropanamido]acetic Acid] | 3.30 to 4.00 | 3.30 to 4.00
CC(C)(NC(=O)Cc1csc(-c2ccc(Cl)cc2Cl)n1)C(=O)O [Compound I-24] | 5.00 to 6.00 | > 6.00
O=C(O)CNC(=O)Cc1csc(-c2cccc(Cl)c2Cl)n1 [Compound I-59] | 3.30 to 4.00 | 3.30 to 4.00
CC(C)(NC(=O)Cc1cccc(-c2ccc(Cl)cc2-c2ccccc2)n1)C(=O)O [Compound I-18] | 5.00 to 6.00 | > 6.00
CC(C)c1ccc(-c2nc(CC(=O)N[C@@H](C(=O)O)c3ccccc3)cs2)cc1 [Compound I-54] | 3.30 to 4.00 | 3.30 to 4.00
CCc1cccc(-c2cc(Cl)ccc2-c2nc(CC(=O)NC(C)(C)C(=O)O)cs2)c1 [Compound I-12] | 5.00 to 6.00 | > 6.00
CC(C)Cc1cc(Cl)ccc1-c1nc(CC(=O)NC(C)(C)C(=O)O)cs1 [Compound I-21] | 5.00 to 6.00 | > 6.00
CC(C)(NC(=O)Cc1csc(-c2ccc(Cl)cc2-c2cccc(Cl)c2)n1)C(=O)O [Compound I-6] | > 6.00 | > 6.00
O=C(O)CNC(=O)C(c1ccccc1)c1csc(-c2ccc(Cl)cc2Cl)n1 (centres unmarked) [Compound I-66] | 3.30 to 4.00 | < 3.30
Cc1cccc(-c2cc(Cl)ccc2-c2nc(CC(=O)NC(C)(C)C(=O)O)cs2)c1C [Compound I-9] | > 6.00 | > 6.00
CC(C)(NC(=O)Cc1csc(-c2ccc(Cl)cc2-c2cccc3c2CCC3)n1)C(=O)O [Compound I-14] | 5.00 to 6.00 | > 6.00
COc1ccccc1-c1nc(CC(=O)NC(C)C(=O)O)cs1 (centres unmarked) [Compound I-61] | 3.30 to 4.00 | 4.00 to 5.00
O=C(O)CNC(=O)Cc1csc(-c2ccc(Cl)cc2Cl)n1 [Compound I-46] | 4.00 to 5.00 | 4.00 to 5.00
C[C@H](NC(=O)Cc1csc(-c2ccc(Cl)cc2Cl)n1)C(=O)O [Compound I-35] | 4.00 to 5.00 | 4.00 to 5.00
O=C(Cc1csc(-c2cccc(Br)c2)n1)N[C@@H](Cc1ccccc1)C(=O)O [Compound I-52] | 3.30 to 4.00 | 3.30 to 4.00
CC(C)(NC(=O)Cc1csc(-c2ccc(Cl)cc2-c2cccc(C#N)c2)n1)C(=O)O [Compound I-1, 2-[[2-[2-[4-Chloro-2-(3-cyanophenyl)phenyl]thiazol-4-yl]acetyl]amino]-2-methyl-propanoic Acid] | > 6.00 | > 6.00

Second part, the compound after the results:

pIC50 [1] | pIC50 [2] | Compound
3.30 to 4.00 | 3.30 to 4.00 | CSCC[C@H](NC(=O)Cc1csc(-c2ccc(Cl)cc2Cl)n1)C(=O)O [Compound I-48]
4.00 to 5.00 | 4.00 to 5.00 | O=C(O)CNC(=O)Cc1csc(-c2ccc(Cl)cc2-c2ccccc2)n1 [Compound I-34, 2-[2-[2-(4-chloro-2-phenylphenyl)-1,3-thiazol-4-yl]acetamido]acetic Acid]
3.30 to 4.00 | 3.30 to 4.00 | CC(C)c1ccc(-c2nc(CC(=O)N[C@@H](Cc3c[nH]c4ccccc34)C(=O)O)cs2)cc1 [Compound I-51]
3.30 to 4.00 | 3.30 to 4.00 | O=C(O)CNC(=O)Cc1csc(-c2ccc3c(c2)OCCO3)n1 [Compound I-62, 2-[2-[2-(2,3-dihydro-1,4-benzodioxin-6-yl)-1,3-thiazol-4-yl]acetamido]acetic Acid]
3.30 to 4.00 | 3.30 to 4.00 | O=C(Cc1csc(-c2ccc(Cl)cc2Cl)n1)N[C@@H](C(=O)O)c1ccccc1 [Compound I-55]
4.00 to 5.00 | 4.00 to 5.00 | O=C(O)CNC(=O)Cc1cccc(-c2ccc(Cl)cc2Cl)c1 [Compound I-41]
> 6.00 | > 6.00 | CC(C)(NC(=O)Cc1csc(-c2ccc(Cl)cc2-c2ccccc2)n1)C(=O)O [Compound I-5]
> 6.00 | > 6.00 | CC(C)(NC(=O)Cc1csc(-c2ccc(Cl)cc2CC2CCC2)n1)C(=O)O [Compound I-10, 2-[[2-[2-[4-Chloro-2-(cyclobutylmethyl)phenyl]thiazol-4-yl]acetyl]amino]-2-methyl-propanoic Acid]
4.00 to 5.00 | 5.00 to 6.00 | CC(C)(NC(=O)Cc1csc(-c2ccc(Cl)cc2C2CC2)n1)C(=O)O [Compound I-26]
3.30 to 4.00 | 4.00 to 5.00 | COc1ccccc1-c1nc(CC(=O)N[C@@H](C)C(=O)O)cs1 [Compound I-57]
4.00 to 5.00 | 4.00 to 5.00 | O=C(O)CNC(=O)Cc1csc(-c2ccc(Cl)c3ccccc23)n1 [Compound I-40, 2-[2-[2-(4-chloronaphthalen-1-yl)-1,3-thiazol-4-yl]acetamido]acetic Acid]
3.30 to 4.00 | 3.30 to 4.00 | CC(C)[C@H](NC(=O)Cc1csc(-c2ccc(Cl)cc2Cl)n1)C(=O)O [Compound I-58]
4.00 to 5.00 | 5.00 to 6.00 | O=C(Cc1csc(-c2ccc(Cl)cc2Cl)n1)NC1(C(=O)O)CCC1 [Compound I-28]
4.00 to 5.00 | 3.30 to 4.00 | NC(=O)NCCC[C@@H](NC(=O)Cc1csc(-c2ccc(F)cc2)n1)C(=O)O [Compound I-44]
5.00 to 6.00 | > 6.00 | CC(C)(NC(=O)Cc1cncc(-c2ccc(Cl)cc2-c2ccccc2)c1)C(=O)O [Compound I-17, 2-[[2-[5-(4-Chloro-2-phenyl-phenyl)-3-pyridyl]acetyl]amino]-2-methyl-propanoic Acid]
4.00 to 5.00 | 5.00 to 6.00 | Cc1sc(-c2ccc(Cl)cc2Cl)nc1CC(=O)NC(C)(C)C(=O)O [Compound I-33]
5.00 to 6.00 | 5.00 to 6.00 | CC(C)(NC(=O)Cc1cc(-c2ccc(Cl)cc2-c2ccccc2)ccn1)C(=O)O [Compound I-23]
5.00 to 6.00 | > 6.00 | CC(C)c1cc(Cl)ccc1-c1nc(CC(=O)NC(C)(C)C(=O)O)cs1 [Compound I-25]
4.00 to 5.00 | 5.00 to 6.00 | CC(C)(NC(=O)Cc1csc(-c2ccc(Cl)cc2C2CCNCC2)n1)C(=O)O [Compound I-31, 2-[[2-[2-[4-Chloro-2-(4-piperidyl)phenyl]thiazol-4-yl]acetyl]amino]-2-methyl-propanoic Acid]
3.30 to 4.00 | 3.30 to 4.00 | O=C(Cc1csc(-c2cccc(Cl)c2)n1)N[C@@H](Cc1ccccc1)C(=O)O [Compound I-68]
